From paper PMC3362575, “Synthesis and Biological Evaluation of Phenanthrenes as Cytotoxic Agents with Pharmacophore Modeling and ChemGPS-NP Prediction as Topo II Inhibitors” (PLoS ONE, 2012)
Converted amounts (≈) assume the structure as drawn.

Columns and labels:
Assay type in all cases: cell-based, human
[1] = test system: HepG2; experiment: MTT cytotoxicity assay, HepG2; conditions: for IC50: Homo sapiens
Procedure: (§1) The cytotoxic assay of 11 naturally occurring and 19 synthesized phenanthrenes was carried out on a diverse set of human liver (HepG2 and Hep3B), oral (Ca9-22), lung (A549) and breast (MEA-MB-231 and MCF7) cancer cell lines, and a human fetal lung fibroblast (MRC-5) cell line (Tables 1 and 2).
(§2) Compounds were tested against human liver (HepG2 and Hep3B), oral (Ca9-22), lung (A549), breast (MEA-MB-231 and MCF7) cancer cell lines, and the human fetal lung fibroblast (MRC-5) cell line using an established colorimetric MTT assay protocol. The absorbance was measured at 550 nm using a microplate reader. The IC50 is the concentration of agent that reduced cell growth by 50% under the experimental conditions.

[2] = test system: Hep3B; experiment: MTT cytotoxicity assay, Hep3B; conditions: for IC50: Homo sapiens, Hep3B
Procedure: as §1, §2

[3] = test system: Ca9-22; experiment: MTT cytotoxicity assay, Ca9-22; conditions: for IC50: Homo sapiens
Procedure: as §1, §2

[4] = test system: A549; experiment: MTT cytotoxicity assay, A549; conditions: for IC50: Homo sapiens
Procedure: as §1, §2

[5] = test system: MCF-7; experiment: MTT cytotoxicity assay, MCF-7; conditions: for IC50 / MCF-7 activity class (from IC50): Homo sapiens; for MCF-7 activity class (from IC50): MCF7, Table S3, read-out: Scale Exptl. (MCF-7 activity class)
Procedure: as §1, §2
The pharmacophore modeling with Catalyst HypoGen was performed via Discovery Studio 2.1 (Accelrys, San Diego, CA, USA). Twenty-nine phenanthrene derivatives were collected from the natural plant, C. arisanensis, and from chemical synthesis (Figure 2). Cytotoxicity against MCF-7 cells was determined by the MTT assay and the concentration (µg/mL) of test compound which inhibited 50% of the cancer cells (IC50) was used in the generation of the pharmacophore model. An IC50 value of >20 µg/mL was defined as 20 µg/mL. All experimental IC50 values spanned about 2–3 orders of magnitude from 0.09 to 20 µg/mL. The 2D/3D structures of compounds were generated using ChemBioOffice 2008 (Cambridge Scientic Computing, Cambridge, Massachusetts, USA) and then optimized in a Dreiding force field. The conformational ensemble of each compound was generated using the best conformational analysis method based on a CHARMM force field with a 20 kcal/mol energy threshold above the global minimum. A maximum limit of 255 conformations was used to cover maximum conformational space. The best 3D arrangements of chemical functionalities should explain the activity variations among the 29 compounds. Thirty runs with different parameters were performed for the best pharmacophore hypothesis. Four chemical features, including hydrogen-bond acceptor (HBA), hydrogen-bond donor (HBD), hydrophobic (HYD), and aromatic ring (AR) features, were also tested during the building of pharmacophore hypotheses (Table S1; Text S1). The best hypotheses were selected via a correlation and a cost analysis in Catalyst HypoGen.

[6] = test system: MDA-MB-231; experiment: MTT cytotoxicity assay, MDA-MB-231; conditions: for IC50: Homo sapiens
Procedure: as §1, §2

[7] = test system: MRC-5; experiment: MTT cytotoxicity assay, MRC-5 fetal lung fibroblast; conditions: normal fetal lung fibroblast; for IC50: Homo sapiens
Procedure: as §1, §2

[8] = HepG2, Table 1, natural phenanthrenes
[9] = Ca9-22, Table 1, natural phenanthrenes
[10] = A549, Table 1, natural phenanthrenes
[11] = MCF7, Table 1, natural phenanthrenes, MTT
[12] = MDA-MB-231, Table 1, natural phenanthrenes
[13] = MRC5, Table 1, natural phenanthrenes
[14] = HepG2, Table 2, synthesized phenanthrenes
[15] = Table 2, synthesized phenanthrenes
[16] = Ca9-22, Table 2, synthesized phenanthrenes
[17] = A549, Table 2, synthesized phenanthrenes
[18] = MCF7, Table 2, synthesized phenanthrenes, MTT
[19] = MDA-MB-231, Table 2, synthesized phenanthrenes
[20] = MRC5, Table 2, synthesized phenanthrenes

Molecule	IC50 [1, 8] [µg/mL]	IC50 ([2]; Table 1, natural phenanthrenes) [µg/mL]	IC50 [3, 9] [µg/mL]	IC50 [4, 10] [µg/mL]	IC50 [5, 11] [µg/mL]	MCF-7 activity class (from IC50) [5] [µg/mL]	IC50 [6, 12] [µg/mL]	IC50 [7, 13] [µg/mL]	IC50 [1, 14] [µg/mL]	IC50 [2, 15] [µg/mL]	IC50 [3, 16] [µg/mL]	IC50 [4, 17] [µg/mL]	IC50 [5, 18] [µg/mL]	IC50 [6, 19] [µg/mL]	IC50 [7, 20] [µg/mL]	also measured
COc1cc2c(c(OC)c1O)C1=C(CC2)C(=O)C=CC1=O [CA-3]	19.76 ± 0.16 (≈ 69 µM)	6.02 ± 0.12 (≈ 21 µM)	12.6 ± 0.76 (≈ 43.8 µM)	> 20	13.2 (≈ 46.3 µM)	1 to 20	11.9 ± 0.02 (≈ 41.6 µM)	> 20								
COc1cc2ccc3c(OC)ccc(OC)c3c2c(O)c1OC [Compound 9a, 5-hydroxy-1,4,6,7-tetramethoxy-phenanthrene]						> 20			> 20	> 20	> 20	> 20	> 20	> 20	> 20	
COc1cc2ccc3c(OC)ccc(OC)c3c2c(O)c1O [Compound 8a, 5,6-Dihydroxy-1,4,7-trimethoxy-phenanthrene]						1 to 20			19.4 ± 0.56 (≈ 64.5 µM)	5.77 ± 0.63 (≈ 19.2 µM)	3.91 ± 0.07 (≈ 13 µM)	> 20	17 ± 0.42 (≈ 56.6 µM)	15.6 ± 1.52 (≈ 52 µM)	> 20	
COc1cc2ccc3c(OC)ccc(OC)c3c2c(OC)c1OC [Compound 3a, 1,4,5,6,7-Pentamethoxy-phenanthrene]						> 20			> 20	15.55 ± 0.08 (≈ 47.4 µM)	> 20	> 20	> 20	> 20	> 20	
COc1cc(O)c2c(c1)CCc1ccc(O)c(OC)c1-2 [CA-7]	> 20	> 20	> 20	> 20	14.6 ± 0.34 (≈ 53.7 µM)	1 to 20	> 20	> 20								
COc1c(O)cc2c(c1OC)-c1c(O)ccc(O)c1CC2 [CA-5]	17.8 ± 0.4 (≈ 61.7 µM)	9.87 ± 0.09 (≈ 34.2 µM)	12.17 ± 0.03 (≈ 42.2 µM)	> 20	12.7 ± 0.07 (≈ 44.1 µM)	1 to 20	11.7 ± 0.13 (≈ 40.4 µM)	> 20								
COC1=CC(=O)c2ccc3cc(OC)c(O)c(OC)c3c2C1=O [CA-2, calanquinone B]	14.5 ± 0.43 (≈ 46 µM)	11.9 ± 0.55 (≈ 38 µM)	14.64 ± 0.11 (≈ 46.6 µM)	18.5 ± 0.29 (≈ 58.9 µM)	11.9 ± 0.08 (≈ 37.9 µM)	1 to 20	> 20	> 20								
COc1cc2c(c(OC)c1OC)-c1c(O)ccc(O)c1CC2 [CA-6]	> 20	11.5 ± 0.76 (≈ 38 µM)	14.6 ± 0.31 (≈ 48.2 µM)	> 20	> 20	> 20	> 20	> 20								
5,6,7,5′,6′,7′-hexamethoxy-[8,8′]bi-1,4-phenanthrenequinone [Compound 4c]																IC50 HepG2 [1, 15]: 6.87 ± 0.10 µg/mL; IC50 Hep3B [2, 15]: 4.37 ± 0.00 µg/mL; IC50 Ca9-22 [3, 15]: 1.90 ± 0.01 µg/mL; IC50 A549 [4, 15]: 12.65 ± 0.48 µg/mL; IC50 MCF-7 ([5]; Table 2, synthesized phenanthrenes, MTT): 4.71 ± 0.26 µg/mL; Scale Exptl. (MCF-7 activity class) ([5]; Table S3): ++ (moderately active (1.0 μg/mL < IC50 < 20.0 μg/mL, ++)); IC50 MDA-MB-231 [6, 15]: 4.09 ± 0.12 µg/mL; IC50 MRC-5 [7, 15]: 5.37 ± 0.25 µg/mL
COc1cc2c(c(OC)c1O)-c1c(O)ccc(O)c1CC2 [CA-4]	> 20	11.1 ± 0.73 (≈ 38.3 µM)	15.12 ± 0.14 (≈ 52.4 µM)	> 20	14.3 ± 0.18 (≈ 49.6 µM)	1 to 20	19.8 ± 0.45 (≈ 68.8 µM)	> 20								
COc1cc(OC)c2c(ccc3c(OC)ccc(O)c32)c1 [Compound 8b, 4-Hydroxy-1,5,7-trimethoxy-phenanthrene]						1 to 20			10.1 ± 0.66 (≈ 35.5 µM)	6.93 ± 0.19 (≈ 24.4 µM)	12.1 ± 0.37 (≈ 42.5 µM)	19.6 ± 0.22 (≈ 68.9 µM)	19.31 ± 0.08 (≈ 67.9 µM)	> 20	> 20	
COc1cc(O)cc2c1-c1ccc(O)cc1CC2 [CA-10]	7.52 (≈ 31 µM)	7.24 ± 0.18 (≈ 29.9 µM)	6.11 ± 0.51 (≈ 25.2 µM)	7.46 ± 0.32 (≈ 30.8 µM)	6.77 ± 0.12 (≈ 27.9 µM)	1 to 20	7.56 ± 0.03 (≈ 31.2 µM)	16.4 ± 0.36 (≈ 67.7 µM)								
COC1=CC(=O)c2ccc3c(-c4c(OC)c(OC)c(OC)c5c6c(ccc45)C(=O)C=C(OC)C6=O)c(OC)c(OC)c(OC)c3c2C1=O [Compound 5d, 3,5,6,7,3′,5′,6,7′-Octamethoxy-[8,8′]bi-1,4,1′,4′-phenanthrenequinone]						1 to 20			1.49 ± 0.01 (≈ 2.28 µM)	6.66 ± 0.13 (≈ 10.2 µM)	4.36 ± 0.03 (≈ 6.66 µM)	9.3 ± 0.48 (≈ 14.2 µM)	13.78 ± 0.06 (≈ 21.1 µM)	14.8 ± 0.25 (≈ 22.5 µM)	> 20	
COc1cc2ccc3cccc(O)c3c2c(OC)c1O [CA-8]	> 20	> 20	> 20	> 20	> 20	> 20	> 20	> 20								
COc1cc2ccc3c(c2c(OC)c1OC)C(=O)C=CC3=O [Compound 4a, 5,6,7-Trimethoxy-1,4-phenanthrenequinone]						1 to 20			15.68 ± 0.01 (≈ 52.6 µM)	7.33 ± 0.03 (≈ 24.6 µM)	2.17 ± 0.01 (≈ 7.27 µM)	15.94 ± 0.01 (≈ 53.4 µM)	13.2 ± 0.38 (≈ 44.2 µM)	4.6 ± 0.06 (≈ 15.4 µM)	11.9 ± 0.12 (≈ 40 µM)	
COC1=CC(=O)c2ccc3c(-c4c(OC)c(OC)c(OC)c5c6c(ccc45)C(=O)CC(OC)(OC)C6=O)c(OC)c(OC)c(OC)c3c2C1=O [Compound 5e, 3,5,6,7,3′,3′,5′,6,7′-nonamethoxy-2′3′-dihydro-[8,8′]bi-1,4,1′,4′-phenanthrenequinone]						1 to 20			1.24 ± 0.08 (≈ 1.81 µM)	7.38 ± 0.02 (≈ 10.7 µM)	6.21 ± 0.12 (≈ 9.04 µM)	7.49 ± 0.07 (≈ 10.9 µM)	9.4 (≈ 13.7 µM)	6.74 ± 0.05 (≈ 9.82 µM)	8.11 ± 0.25 (≈ 11.8 µM)	
